pKd: −log10 of the molar value.
Legend:
Test in all cases: KINOMEscan kinase profiling
Format in all cases: binding
[1] = biological target: T1, BRSK1 (Homo sapiens, UniProt Q8TDC3); conditions: read-out: %Inhibition by 10 μM SPA70
T1 construct: purchased DiscoverX (Ambit Biosciences) KINOMEscan
Summary of the method: (§1)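 KINOMEscan profiling followed a published protocol. Kinases whose inhibition exceeded a set cut-off were then tested in a dilution series beginning at 30 µM.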

[2] = biological target: T2, CAMK1 (Homo sapiens, UniProt Q14012); conditions: read-out: %Inhibition by 10 μM SPA70
T2 construct: purchased DiscoverX (Ambit Biosciences) KINOMEscan
Summary of the method: as §1

[3] = biological target: T3, CAMKK1 (Homo sapiens, UniProt Q8N5S9); conditions: read-out: %Inhibition by 10 μM SPA70
T3 construct: purchased DiscoverX (Ambit Biosciences) KINOMEscan
Summary of the method: as §1

[4] = biological target: T4, CAMKK2 (Homo sapiens, UniProt Q96RR4); conditions: read-out: %Inhibition by 10 μM SPA70
T4 construct: purchased DiscoverX (Ambit Biosciences) KINOMEscan
Summary of the method: as §1

[5] = biological target: T5, CLK2 (Homo sapiens, UniProt P49760); conditions: read-out: %Inhibition by 10 μM SPA70
T5 construct: purchased DiscoverX (Ambit Biosciences) KINOMEscan
Summary of the method: as §1

[6] = biological target: T6, CSNK1G1 (Homo sapiens, UniProt Q9HCP0)
T6 construct: purchased DiscoverX (Ambit Biosciences) KINOMEscan
Summary of the method: as §1

[7] = biological target: T7, CSNK1G3 (Homo sapiens, UniProt Q9Y6M4)
T7 construct: purchased DiscoverX (Ambit Biosciences) KINOMEscan
Summary of the method: as §1

[8] = biological target: T8, CSNK2A1 (Homo sapiens, UniProt P68400); conditions: read-out: %Inhibition by 10 μM SPA70
T8 construct: purchased DiscoverX (Ambit Biosciences) KINOMEscan
Summary of the method: as §1

[9] = biological target: T9, DAPK1 (Homo sapiens, UniProt P53355); conditions: read-out: %Inhibition by 10 μM SPA70
T9 construct: purchased DiscoverX (Ambit Biosciences) KINOMEscan
Summary of the method: as §1

[10] = biological target: T10, DCAMKL2 (Homo sapiens, UniProt Q8N568); conditions: read-out: %Inhibition by 10 μM SPA70
T10 construct: purchased DiscoverX (Ambit Biosciences) KINOMEscan
Summary of the method: as §1

[11] = biological target: T11, DCAMKL3 (Homo sapiens, UniProt Q9C098); conditions: read-out: %Inhibition by 10 μM SPA70
T11 construct: purchased DiscoverX (Ambit Biosciences) KINOMEscan
Summary of the method: as §1

[12] = biological target: T12, DYRK1B (Homo sapiens, UniProt Q9Y463); conditions: read-out: %Inhibition by 10 μM SPA70
T12 construct: purchased DiscoverX (Ambit Biosciences) KINOMEscan
T12 sequence (Q9Y463 whole entry): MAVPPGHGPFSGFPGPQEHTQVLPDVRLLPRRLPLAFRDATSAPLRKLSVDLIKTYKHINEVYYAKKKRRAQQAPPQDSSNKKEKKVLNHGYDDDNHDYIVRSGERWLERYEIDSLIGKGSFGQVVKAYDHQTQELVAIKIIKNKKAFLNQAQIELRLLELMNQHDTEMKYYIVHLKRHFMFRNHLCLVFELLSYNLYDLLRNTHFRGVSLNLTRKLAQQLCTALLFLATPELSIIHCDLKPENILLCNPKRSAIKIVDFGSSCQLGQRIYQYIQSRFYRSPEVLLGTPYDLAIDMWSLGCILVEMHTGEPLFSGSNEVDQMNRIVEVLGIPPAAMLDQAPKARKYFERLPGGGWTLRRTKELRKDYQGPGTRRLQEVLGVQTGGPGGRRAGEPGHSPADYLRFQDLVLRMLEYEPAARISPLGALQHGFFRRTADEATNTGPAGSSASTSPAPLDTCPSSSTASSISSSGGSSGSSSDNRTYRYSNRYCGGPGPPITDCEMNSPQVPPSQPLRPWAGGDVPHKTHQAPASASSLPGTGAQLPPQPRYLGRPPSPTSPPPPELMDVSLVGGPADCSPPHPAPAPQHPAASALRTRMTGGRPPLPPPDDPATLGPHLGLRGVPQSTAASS
Summary of the method: as §1

[13] = biological target: T13, EPHA7 (Homo sapiens, UniProt Q15375); conditions: read-out: %Inhibition by 10 μM SPA70
T13 construct: purchased DiscoverX (Ambit Biosciences) KINOMEscan
Summary of the method: as §1

[14] = biological target: T14, ERBB4 (Homo sapiens, UniProt Q15303); conditions: read-out: %Inhibition by 10 μM SPA70
T14 construct: purchased DiscoverX (Ambit Biosciences) KINOMEscan
Summary of the method: as §1

[15] = biological target: T15, ERK1 (Homo sapiens, UniProt P27361); conditions: read-out: %Inhibition by 10 μM SPA70
T15 construct: purchased DiscoverX (Ambit Biosciences) KINOMEscan
Summary of the method: as §1

[16] = biological target: T16, ERK2 (Homo sapiens, UniProt P28482); conditions: read-out: %Inhibition by 10 μM SPA70
T16 construct: purchased DiscoverX (Ambit Biosciences) KINOMEscan
Summary of the method: as §1

[17] = biological target: T17, ERK8 (Homo sapiens, UniProt Q8TD08); conditions: read-out: %Inhibition by 10 μM SPA70
T17 construct: purchased DiscoverX (Ambit Biosciences) KINOMEscan
Summary of the method: as §1

[18] = biological target: T18, FGR (Homo sapiens, UniProt P09769); conditions: read-out: %Inhibition by 10 μM SPA70
T18 construct: purchased DiscoverX (Ambit Biosciences) KINOMEscan
T18 sequence (P09769 whole entry): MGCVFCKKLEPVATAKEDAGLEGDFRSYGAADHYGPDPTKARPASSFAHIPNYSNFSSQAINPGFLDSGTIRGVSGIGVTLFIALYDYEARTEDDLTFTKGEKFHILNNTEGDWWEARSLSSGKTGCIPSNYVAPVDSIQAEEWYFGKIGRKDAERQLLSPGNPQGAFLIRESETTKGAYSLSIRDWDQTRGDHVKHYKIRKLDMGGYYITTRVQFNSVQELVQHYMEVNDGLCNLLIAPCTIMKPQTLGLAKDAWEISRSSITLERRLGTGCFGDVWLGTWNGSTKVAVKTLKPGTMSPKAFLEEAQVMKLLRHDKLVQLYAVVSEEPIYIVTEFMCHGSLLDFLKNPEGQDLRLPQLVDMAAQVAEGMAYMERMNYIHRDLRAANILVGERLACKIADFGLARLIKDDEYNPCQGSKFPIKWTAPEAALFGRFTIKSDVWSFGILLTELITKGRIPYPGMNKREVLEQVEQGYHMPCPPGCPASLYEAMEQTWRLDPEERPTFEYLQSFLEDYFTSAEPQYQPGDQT
Summary of the method: as §1

[19] = biological target: T19, GSK3B (Homo sapiens, UniProt P49841)
T19 construct: purchased DiscoverX (Ambit Biosciences) KINOMEscan
T19 sequence (P49841 whole entry): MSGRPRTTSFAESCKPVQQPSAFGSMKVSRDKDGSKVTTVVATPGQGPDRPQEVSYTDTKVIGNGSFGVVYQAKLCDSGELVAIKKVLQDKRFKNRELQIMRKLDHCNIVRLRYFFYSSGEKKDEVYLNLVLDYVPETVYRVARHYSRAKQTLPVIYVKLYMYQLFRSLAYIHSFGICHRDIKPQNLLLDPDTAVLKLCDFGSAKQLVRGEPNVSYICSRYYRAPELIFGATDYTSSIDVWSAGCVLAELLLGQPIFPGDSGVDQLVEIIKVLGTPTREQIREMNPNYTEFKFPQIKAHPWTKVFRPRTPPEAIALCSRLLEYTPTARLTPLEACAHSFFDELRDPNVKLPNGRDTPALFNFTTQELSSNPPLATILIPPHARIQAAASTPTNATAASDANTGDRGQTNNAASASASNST
Summary of the method: as §1

[20] = biological target: T20, IKK-alpha (Homo sapiens, UniProt O15111); conditions: read-out: %Inhibition by 10 μM SPA70
T20 construct: purchased DiscoverX (Ambit Biosciences) KINOMEscan
Summary of the method: as §1

[21] = biological target: T21, KIT (Homo sapiens, UniProt P10721)
T21 construct: purchased Ambit Biosciences, now part of DiscoveryX
T21 sequence (P10721 26-976): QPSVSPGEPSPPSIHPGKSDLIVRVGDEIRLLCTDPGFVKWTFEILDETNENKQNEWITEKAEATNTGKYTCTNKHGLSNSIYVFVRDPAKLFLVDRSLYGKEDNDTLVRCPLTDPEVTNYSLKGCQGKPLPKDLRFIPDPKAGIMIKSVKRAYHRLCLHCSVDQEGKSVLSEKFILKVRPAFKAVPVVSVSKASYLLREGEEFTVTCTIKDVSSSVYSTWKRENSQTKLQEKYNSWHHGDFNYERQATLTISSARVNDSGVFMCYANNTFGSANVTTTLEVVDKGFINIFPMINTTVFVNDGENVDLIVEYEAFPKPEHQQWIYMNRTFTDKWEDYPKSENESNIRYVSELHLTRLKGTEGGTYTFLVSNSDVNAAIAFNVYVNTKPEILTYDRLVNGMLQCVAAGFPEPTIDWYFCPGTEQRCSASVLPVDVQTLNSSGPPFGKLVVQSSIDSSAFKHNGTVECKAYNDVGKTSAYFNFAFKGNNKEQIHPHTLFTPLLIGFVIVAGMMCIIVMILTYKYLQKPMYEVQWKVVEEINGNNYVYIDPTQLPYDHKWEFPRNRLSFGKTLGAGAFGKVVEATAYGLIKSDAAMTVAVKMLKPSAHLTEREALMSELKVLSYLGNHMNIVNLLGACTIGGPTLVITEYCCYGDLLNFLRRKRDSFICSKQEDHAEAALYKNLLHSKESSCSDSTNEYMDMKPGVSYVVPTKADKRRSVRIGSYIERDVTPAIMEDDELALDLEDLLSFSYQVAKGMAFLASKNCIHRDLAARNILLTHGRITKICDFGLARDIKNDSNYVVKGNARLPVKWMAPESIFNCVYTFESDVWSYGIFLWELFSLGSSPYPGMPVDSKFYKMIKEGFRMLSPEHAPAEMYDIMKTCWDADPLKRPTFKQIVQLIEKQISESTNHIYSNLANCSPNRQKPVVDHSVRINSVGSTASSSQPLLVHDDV
Summary of the method: as §1

[22] = biological target: T22, MAK (Homo sapiens, UniProt P20794); conditions: read-out: %Inhibition by 10 μM SPA70
T22 construct: purchased DiscoverX (Ambit Biosciences) KINOMEscan
Summary of the method: as §1

[23] = biological target: T23, MYLK4 (Homo sapiens, UniProt Q86YV6); conditions: read-out: %Inhibition by 10 μM SPA70
T23 construct: purchased DiscoverX (Ambit Biosciences) KINOMEscan
Summary of the method: as §1

[24] = biological target: T24, MYO3A (Homo sapiens, UniProt Q8NEV4); conditions: read-out: %Inhibition by 10 μM SPA70
T24 construct: purchased DiscoverX (Ambit Biosciences) KINOMEscan
Summary of the method: as §1

[25] = biological target: T25, NEK2 (Homo sapiens, UniProt P51955); conditions: read-out: %Inhibition by 10 μM SPA70
T25 construct: purchased DiscoverX (Ambit Biosciences) KINOMEscan
Summary of the method: as §1

[26] = biological target: T26, PAK3 (Homo sapiens, UniProt O75914); conditions: read-out: %Inhibition by 10 μM SPA70
T26 construct: purchased DiscoverX (Ambit Biosciences) KINOMEscan
Summary of the method: as §1

[27] = biological target: T27, PCTK1 (Homo sapiens, UniProt Q00536); conditions: read-out: %Inhibition by 10 μM SPA70
T27 construct: purchased DiscoverX (Ambit Biosciences) KINOMEscan
Summary of the method: as §1

[28] = biological target: T28, PDGFRA (Homo sapiens, UniProt P16234); conditions: read-out: %Inhibition by 10 μM SPA70
T28 construct: purchased DiscoverX (Ambit Biosciences) KINOMEscan
Summary of the method: as §1

[29] = biological target: T29, PIK3C2G (Homo sapiens, UniProt O75747); conditions: read-out: %Inhibition by 10 μM SPA70
T29 construct: purchased DiscoverX (Ambit Biosciences) KINOMEscan
Summary of the method: as §1

[30] = biological target: T30, PIK3CB (Homo sapiens, UniProt P42338); conditions: read-out: %Inhibition by 10 μM SPA70
T30 construct: purchased DiscoverX (Ambit Biosciences) KINOMEscan
Summary of the method: as §1

[31] = biological target: T31, PRKD1 (Homo sapiens, UniProt Q15139); conditions: read-out: %Inhibition by 10 μM SPA70
T31 construct: purchased DiscoverX (Ambit Biosciences) KINOMEscan
Summary of the method: as §1

[32] = biological target: T32, RIOK1 (Homo sapiens, UniProt Q9BRS2); conditions: read-out: %Inhibition by 10 μM SPA70
T32 construct: purchased DiscoverX (Ambit Biosciences) KINOMEscan
Summary of the method: as §1

[33] = biological target: T33, RSK4(Kin.Dom.2-C-terminal) (Homo sapiens, UniProt Q9UK32)
T33 construct: RSK4(Kin.Dom.2-C-terminal); purchased DiscoverX (Ambit Biosciences) KINOMEscan
T33 sequence (Q9UK32 401-745 limits assumed): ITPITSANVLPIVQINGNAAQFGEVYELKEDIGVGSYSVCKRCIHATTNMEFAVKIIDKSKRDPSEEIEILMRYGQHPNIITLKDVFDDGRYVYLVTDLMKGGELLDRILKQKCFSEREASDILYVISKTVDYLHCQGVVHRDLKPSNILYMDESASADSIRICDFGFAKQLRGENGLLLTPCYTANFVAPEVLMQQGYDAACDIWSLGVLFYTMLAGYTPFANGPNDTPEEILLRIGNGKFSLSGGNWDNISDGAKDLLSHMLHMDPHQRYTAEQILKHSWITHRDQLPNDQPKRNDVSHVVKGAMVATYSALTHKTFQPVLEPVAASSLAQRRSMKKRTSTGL
Summary of the method: as §1

[34] = biological target: T34, SBK1 (Homo sapiens, UniProt Q52WX2); conditions: read-out: %Inhibition by 10 μM SPA70
T34 construct: purchased DiscoverX (Ambit Biosciences) KINOMEscan
Summary of the method: as §1

[35] = biological target: T35, SIK2 (Homo sapiens, UniProt Q9H0K1); conditions: read-out: %Inhibition by 10 μM SPA70
T35 construct: purchased DiscoverX (Ambit Biosciences) KINOMEscan
Summary of the method: as §1

[36] = biological target: T36, SRPK3 (Homo sapiens, UniProt Q9UPE1); conditions: read-out: %Inhibition by 10 μM SPA70
T36 construct: purchased DiscoverX (Ambit Biosciences) KINOMEscan
Summary of the method: as §1

[37] = biological target: T37, STK16 (Homo sapiens, UniProt O75716); conditions: read-out: %Inhibition by 10 μM SPA70
T37 construct: purchased DiscoverX (Ambit Biosciences) KINOMEscan
T37 sequence (O75716 whole entry): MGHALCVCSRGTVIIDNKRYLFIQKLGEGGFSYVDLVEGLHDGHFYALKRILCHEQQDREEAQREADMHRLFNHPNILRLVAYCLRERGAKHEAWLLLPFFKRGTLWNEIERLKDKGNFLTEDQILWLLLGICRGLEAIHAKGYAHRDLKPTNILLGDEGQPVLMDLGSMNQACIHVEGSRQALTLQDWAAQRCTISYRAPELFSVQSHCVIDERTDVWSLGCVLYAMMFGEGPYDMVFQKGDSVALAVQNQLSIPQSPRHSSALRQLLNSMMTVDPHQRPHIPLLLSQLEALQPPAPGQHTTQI
Summary of the method: as §1

[38] = biological target: T38, TAOK1 (Homo sapiens, UniProt Q7L7X3); conditions: read-out: %Inhibition by 10 μM SPA70
T38 construct: purchased DiscoverX (Ambit Biosciences) KINOMEscan
Summary of the method: as §1

[39] = biological target: T39, TRKA (Homo sapiens, UniProt P04629); conditions: read-out: %Inhibition by 10 μM SPA70
T39 construct: purchased DiscoverX (Ambit Biosciences) KINOMEscan
T39 sequence (P04629 33-796): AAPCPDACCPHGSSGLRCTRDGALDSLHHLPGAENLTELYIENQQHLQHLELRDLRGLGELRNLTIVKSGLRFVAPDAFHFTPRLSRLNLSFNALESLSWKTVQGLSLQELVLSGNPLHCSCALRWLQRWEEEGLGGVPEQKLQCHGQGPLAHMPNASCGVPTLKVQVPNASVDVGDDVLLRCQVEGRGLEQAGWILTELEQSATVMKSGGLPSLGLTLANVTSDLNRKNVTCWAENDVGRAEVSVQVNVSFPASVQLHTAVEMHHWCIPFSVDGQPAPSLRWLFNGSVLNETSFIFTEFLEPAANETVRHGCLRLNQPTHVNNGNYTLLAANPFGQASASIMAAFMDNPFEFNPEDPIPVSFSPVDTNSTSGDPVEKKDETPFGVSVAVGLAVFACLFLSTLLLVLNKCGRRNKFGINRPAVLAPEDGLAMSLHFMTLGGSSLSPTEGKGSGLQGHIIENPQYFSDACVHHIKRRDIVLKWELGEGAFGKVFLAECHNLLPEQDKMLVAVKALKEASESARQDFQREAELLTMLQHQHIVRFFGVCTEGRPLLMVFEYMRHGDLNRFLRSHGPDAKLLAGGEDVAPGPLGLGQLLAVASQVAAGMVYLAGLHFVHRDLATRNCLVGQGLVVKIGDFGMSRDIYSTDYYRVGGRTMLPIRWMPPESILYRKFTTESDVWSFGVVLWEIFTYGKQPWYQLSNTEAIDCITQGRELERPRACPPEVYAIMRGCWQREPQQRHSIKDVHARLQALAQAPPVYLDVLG
Summary of the method: as §1

[40] = biological target: T40, ULK1 (Homo sapiens, UniProt O75385)
T40 construct: purchased DiscoverX (Ambit Biosciences) KINOMEscan
T40 sequence (O75385 whole entry): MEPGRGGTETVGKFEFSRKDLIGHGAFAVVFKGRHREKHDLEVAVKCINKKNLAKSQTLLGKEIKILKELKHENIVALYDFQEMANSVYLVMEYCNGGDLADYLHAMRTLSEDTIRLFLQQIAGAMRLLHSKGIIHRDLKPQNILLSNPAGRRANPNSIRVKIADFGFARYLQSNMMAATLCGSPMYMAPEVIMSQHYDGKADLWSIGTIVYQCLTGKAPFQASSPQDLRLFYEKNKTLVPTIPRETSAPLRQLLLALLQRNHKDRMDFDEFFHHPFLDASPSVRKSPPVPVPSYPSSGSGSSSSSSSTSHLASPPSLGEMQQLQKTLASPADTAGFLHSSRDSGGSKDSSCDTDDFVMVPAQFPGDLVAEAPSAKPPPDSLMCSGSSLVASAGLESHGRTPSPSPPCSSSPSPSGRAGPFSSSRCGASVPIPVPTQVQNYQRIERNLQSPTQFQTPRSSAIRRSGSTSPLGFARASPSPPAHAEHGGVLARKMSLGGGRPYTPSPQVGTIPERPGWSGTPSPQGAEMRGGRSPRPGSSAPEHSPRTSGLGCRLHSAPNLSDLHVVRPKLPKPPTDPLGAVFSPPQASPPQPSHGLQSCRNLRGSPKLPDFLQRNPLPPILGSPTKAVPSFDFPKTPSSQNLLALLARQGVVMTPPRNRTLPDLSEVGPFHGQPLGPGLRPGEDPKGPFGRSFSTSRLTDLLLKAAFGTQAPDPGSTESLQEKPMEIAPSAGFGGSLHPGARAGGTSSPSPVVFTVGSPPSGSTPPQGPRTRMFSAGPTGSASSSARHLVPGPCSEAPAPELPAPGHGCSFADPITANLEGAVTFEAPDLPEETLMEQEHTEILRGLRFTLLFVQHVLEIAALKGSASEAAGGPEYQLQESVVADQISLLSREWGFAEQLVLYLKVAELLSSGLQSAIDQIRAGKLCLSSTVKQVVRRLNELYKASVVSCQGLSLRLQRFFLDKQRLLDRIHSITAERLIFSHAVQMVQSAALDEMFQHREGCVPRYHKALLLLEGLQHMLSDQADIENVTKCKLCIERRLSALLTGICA
Summary of the method: as §1

[41] = biological target: T41, VEGFR2 (Homo sapiens, UniProt P35968); conditions: read-out: %Inhibition by 10 μM SPA70
T41 construct: purchased DiscoverX (Ambit Biosciences) KINOMEscan
Summary of the method: as §1

[42] = read-out: %Inhibition by 10 μM SPA70

`COc1ccc(OC)c(-n2nnc(S(=O)(=O)c3ccc(C(C)(C)C)cc3)c2C)c1` [SPA70] gave an inhibition at 10 µM [1] of 8%, an inhibition at 10 µM [2] of 0% and an inhibition at 10 µM [3] of 1%. For the same molecule, the inhibition at 10 µM [4] was 0%, the inhibition at 10 µM [5] was 24% and the “%Inhibition by 10 μM SPA70” value [6] was 0%. The “%Inhibition by 10 μM SPA70” value [7] was 0%, the inhibition at 10 µM [8] was 15% and the inhibition at 10 µM [9] was 10%. The inhibition at 10 µM [10] was 0%, the inhibition at 10 µM [11] was 0% and the inhibition at 10 µM [12] was 0%. It also gave an inhibition at 10 µM [13] of 0%, an inhibition at 10 µM [14] of 2% and an inhibition at 10 µM [15] of 0%. The inhibition at 10 µM [16] was 0%, the inhibition at 10 µM [17] was 0% and the inhibition at 10 µM [18] was 6%. The “%Inhibition by 10 μM SPA70” value [19] was “not inhibited”, the inhibition at 10 µM [19, 42] was 0% and the inhibition at 10 µM [20] was 10%. It also gave a pKd ([21]; 11-point 3-fold serial dilutions starting from 30 µM) of 5.60, an inhibition at 10 µM [21, 42] of 83% and an inhibition at 10 µM [22] of 13%. The inhibition at 10 µM [23] was 0%, the inhibition at 10 µM [24] was 0% and the inhibition at 10 µM [25] was 4%. The inhibition at 10 µM [26] was 0%, the inhibition at 10 µM [27] was 4% and the inhibition at 10 µM [28] was 36%. It also gave an inhibition at 10 µM [29] of 0%, an inhibition at 10 µM [30] of 8% and an inhibition at 10 µM [31] of 0%. For the same molecule, the inhibition at 10 µM [32] was 47%, the “%Inhibition by 10 μM SPA70” value [33] was 16% and the inhibition at 10 µM [34] was 0%. The inhibition at 10 µM [35] was 0%, the inhibition at 10 µM [36] was 0% and the inhibition at 10 µM [37] was 0%. For the same molecule, the inhibition at 10 µM [38] was 15%, the inhibition at 10 µM [39] was 0% and the “%Inhibition by 10 μM SPA70” value [40] was 5%. For the same molecule, the inhibition at 10 µM [41] was 0%.

— paper PMC5622171 (Nature Communications, 2017)
